Assay [1] concerns C57BL/6J mice (mild hyperglycemic). Kind of assay: In vivo glucose reduction, acute single dose 120-min time-course, oral route. Set-up: species or system mouse; unit not given here. As to conditions: male C57BL/6J mice. The procedure:
Acute single dose 120-min time-course experiments were carried out in male C57BL/6J or db/db mice, age 8-12 weeks, bred in-house. Animals were housed in groups of 6 animals per cage, for a week, in order to habituate them to vivarium conditions (25±4° C., 60-65% relative humidity, 12:12 h light:dark cycle, with lights on at 7.30 am). All the animal experiments were carried out according to the internationally valid guidelines following approval by the ‘Zydus Research Center animal ethical committee’.
Two days prior to the study, the animals were randomised and divided into 5 groups (n=6), based upon their fed glucose levels. On the day of experiment, food was withdrawn from all the cages, water was given ad-libitum and were kept for overnight fasting. Vehicle (normal saline)/test/standard compounds were administered intraperitoneally (i.p.) or orally, on a body weight basis. Soon after the 0 min. blood collection from each animal, the subsequent blood collections were done at 30, 60 and 120 or up to 240 min., via retro-orbital route, under light ether anesthesia (Chen, D., et al., Diabetes Obesity Metabolism, 2005, 7, 307. Kim, J. G. et al., Diabetes, 2003, 52, 751).
(§1) Blood samples were centrifuged and the separated serum was immediately subjected for the glucose estimation. Serum for insulin estimation was stored at −70° C. until used for the insulin estimation. The glucose estimation was carried out with DPEC-GOD/POD method (Ranbaxy Fine Chemicals Limited, Diagnostic division, India), using Spectramax-190, in 96-microwell plate reader (Molecular devices Corporation, Sunnyvale, Calif.). […] The AUC and BCAUC obtained from graphs were analyzed for one way ANOVA, followed by Dunnett's post test, using Graph Pad prism software. Furthermore, the insulin estimation was carried out using rat/mouse insulin ELISA kit (Linco research, Missouri USA). Changes in the blood glucose levels, at 0, 30, 60 and 120 min, with selected peptidomimetics are shown in Table 7 (via ip route of administration) and Table 8 (via oral route of administration) respectively.

For assay [2] the test system is unchanged. Kind of assay: In vivo glucose reduction, acute single dose 120-min time-course, i.p. route. As to conditions: male C57BL/6J mice. More on the design: species or system mouse; unit not given here. The method, then: All the animal experiments were carried out according to the internationally valid guidelines following approval by the ‘Zydus Research Center animal ethical committee’.
Two days prior to the study, the animals were randomised and divided into 5 groups (n=6), based upon their fed glucose levels. On the day of experiment, food was withdrawn from all the cages, water was given ad-libitum and were kept for overnight fasting. Vehicle (normal saline)/test/standard compounds were administered intraperitoneally (i.p.) or orally, on a body weight basis.
as §1, with “USA).” for “USA). Changes in the blood glucose levels, at 0, 30, 60 and 120 min, with selected peptidomimetics are shown in Table 7 (via ip route of administration) and Table 8 (via oral route of administration) respectively.”

In patent publication US8883963B2 (Cadila Healthcare Limited, priority 2007, dated 2014) one finds blood glucose levels data, which are given here for 9 compounds.

Starred links: 1 amine or outer side, 2 acyl side, 3 side chain; linkers in the order of their positions; H or OH if unused. Non-standard residues stand in square brackets, D forms with d. Residues, ends and D or L forms follow the SMILES beside them. ξ: configuration not given here. *: point of attachment. ξBip(2'-Et-4'-OMe) = CCc1cc(OC)ccc1-c1ccc(CC(N)C(=O)O)cc1; X12 = COc1ccc(CCCC(N[*:1])C(=O)[*:2])c(Cl)c1; ξαMePhe(2-F) = CC(N)(Cc1ccccc1F)C(=O)O; ξhhPhe = NC(CCCc1ccccc1)C(=O)O; Aib = CC(C)(N)C(=O)O; Moc = COC(=O)*

Turning to `CCc1cc(OC)ccc1-c1ccc(CC(NC(=O)[C@H](CC(=O)O)NC(=O)[C@H](CO)NC(=O)[C@@H](NC(=O)[C@H](Cc2ccccc2)NC(=O)[C@@H](NC(=O)CNC(=O)C(CCC#N)NC(=O)C(C)(C)NC(=O)[C@@H](N)Cc2c[nH]cn2)[C@@H](C)O)[C@@H](C)O)C(=O)NC(CCCc2ccccc2)C(N)=O)cc1` (single isomer, unassigned) [Seq. ID. 29], the blood glucose levels in assay [1] (2 μM/kg oral, 0 min) is 184 ± 2.5; in assay [1] (2 μM/kg oral, 30 min) it was 118 ± 3.6; in assay [1] (2 μM/kg oral, 60 min) it was 113 ± 4.2; in assay [1] (2 μM/kg oral, 120 min), 110 ± 2.4; in assay [2] (30 nM/kg i.p., 0 min), 180 ± 1.2; in assay [2] (30 nM/kg i.p., 30 min), 116 ± 3.2. The blood glucose levels in assay [2] (30 nM/kg i.p., 60 min) was 116 ± 3.1; in assay [2] (30 nM/kg i.p., 120 min), 118 ± 1.8.
Consider `CCc1cc(OC)ccc1-c1ccc(CC(NC(=O)[C@H](CC(=O)O)NC(=O)[C@H](CO)NC(=O)[C@@H](NC(=O)[C@H](Cc2ccccc2)NC(=O)[C@@H](NC(=O)CNC(=O)C(CCC#N)NC(=O)C(C)(C)NC(=O)[C@@H](N)Cc2c[nH]cn2)[C@@H](C)O)[C@@H](C)O)C(=O)NC(CCCc2cc(C)cc(C)c2)C(N)=O)cc1` (single isomer, unassigned) [Seq. ID. 30], for which the blood glucose levels was 183 ± 2.4 in assay [1] (2 μM/kg oral, 0 min); 119 ± 3.1 in assay [1] (2 μM/kg oral, 30 min); 112 ± 4.8 in assay [1] (2 μM/kg oral, 60 min); 110 ± 2.5 in assay [1] (2 μM/kg oral, 120 min); 183 ± 3.6 in assay [2] (30 nM/kg i.p., 0 min); 117 ± 3.3 in assay [2] (30 nM/kg i.p., 30 min). Besides, the blood glucose levels is 116 ± 3.2 in assay [2] (30 nM/kg i.p., 60 min) and 117 ± 1.4 in assay [2] (30 nM/kg i.p., 120 min).
On to `CCc1cc(OC)ccc1-c1ccc(CC(NC(=O)[C@H](CC(=O)O)NC(=O)[C@H](CO)NC(=O)[C@@H](NC(=O)[C@H](Cc2ccccc2)NC(=O)[C@@H](NC(=O)CNC(=O)C(CCC#N)NC(=O)C(C)(C)NC(=O)[C@@H](N)Cc2c[nH]cn2)[C@@H](C)O)[C@@H](C)O)C(=O)NC(CCCc2ccc(Cl)cc2C)C(N)=O)cc1` (single isomer, unassigned) [Seq. ID. 32], for which the blood glucose levels in assay [1] (2 μM/kg oral, 0 min) was 181 ± 2.5; in assay [1] (2 μM/kg oral, 30 min) it was 117 ± 3.3; in assay [1] (2 μM/kg oral, 60 min) it was 112 ± 4.0; in assay [1] (2 μM/kg oral, 120 min), 108 ± 2.9; in assay [2] (20 nM/kg i.p., 0 min), 182 ± 3.3; in assay [2] (20 nM/kg i.p., 30 min), 120 ± 3.6. The blood glucose levels stood at 127 ± 3.4 in assay [2] (20 nM/kg i.p., 60 min) and 145 ± 2.1 in assay [2] (20 nM/kg i.p., 120 min).
With `CCc1cc(OC)ccc1-c1ccc(CC(NC(=O)[C@H](CC(=O)O)NC(=O)[C@H](CO)NC(=O)[C@@H](NC(=O)[C@H](Cc2ccccc2)NC(=O)[C@@H](NC(=O)CNC(=O)C(CCC#N)NC(=O)C(C)(C)NC(=O)[C@@H](N)Cc2c[nH]cn2)[C@@H](C)O)[C@@H](C)O)C(=O)NC(CCCc2ccccc2F)C(N)=O)cc1` (single isomer, unassigned) [Seq. ID. 77], the blood glucose levels in assay [1] (2 μM/kg oral, 0 min) was 183 ± 2.1; in assay [1] (2 μM/kg oral, 30 min), 118 ± 3.4; in assay [1] (2 μM/kg oral, 60 min), 113 ± 4.6; in assay [1] (2 μM/kg oral, 120 min) it was 111 ± 2.8; in assay [2] (20 nM/kg i.p., 0 min) it was 183 ± 4.9; in assay [2] (20 nM/kg i.p., 30 min), 120 ± 2.8. Further, the blood glucose levels is reported as 129 ± 3.0 in assay [2] (20 nM/kg i.p., 60 min) and 139 ± 2.0 in assay [2] (20 nM/kg i.p., 120 min).
For the compound `CCc1cc(OC)ccc1-c1ccc(CC(NC(=O)[C@H](CC(=O)O)NC(=O)[C@H](CO)NC(=O)[C@@H](NC(=O)[C@H](Cc2ccccc2)NC(=O)[C@@H](NC(=O)CNC(=O)C(CCC#N)NC(=O)C(C)(C)NC(=O)[C@@H](N)Cc2c[nH]cn2)[C@@H](C)O)[C@@H](C)O)C(=O)NC(CCCc2ccc(F)cc2C(F)(F)F)C(N)=O)cc1` (single isomer, unassigned) [Seq. ID. 80], the blood glucose levels is on record as 184 ± 2.5 in assay [1] (0.5 μM/kg oral, 0 min); 115 ± 3.6 in assay [1] (0.5 μM/kg oral, 30 min); 113 ± 4.2 in assay [1] (0.5 μM/kg oral, 60 min); 110 ± 2.4 in assay [1] (0.5 μM/kg oral, 120 min); 183 ± 2.2 in assay [2] (10 nM/kg i.p., 0 min); 113 ± 2.8 in assay [2] (10 nM/kg i.p., 30 min). Further, the blood glucose levels worked out at 113 ± 2.9 in assay [2] (10 nM/kg i.p., 60 min) and 114 ± 2.0 in assay [2] (10 nM/kg i.p., 120 min).
Take `CCc1cc(OC)ccc1-c1ccc(CC(NC(=O)[C@H](CC(=O)O)NC(=O)[C@H](CO)NC(=O)[C@@H](NC(=O)[C@H](Cc2ccccc2)NC(=O)[C@@H](NC(=O)CNC(=O)C(CCC#N)NC(=O)C(C)(C)NC(=O)[C@@H](N)Cc2c[nH]cn2)[C@@H](C)O)[C@@H](C)O)C(=O)NC(CCCc2ccc(OC)cc2Cl)C(N)=O)cc1` (single isomer, unassigned) [Seq. ID. 84]: the blood glucose levels in assay [1] (2 μM/kg oral, 0 min) stood at 183 ± 2.4; in assay [1] (2 μM/kg oral, 30 min) it was 116 ± 3.1; in assay [1] (2 μM/kg oral, 60 min) it was 112 ± 4.8; in assay [1] (2 μM/kg oral, 120 min), 110 ± 2.5; in assay [2] (10 nM/kg i.p., 0 min) it was 182 ± 2.3; in assay [2] (10 nM/kg i.p., 30 min), 110 ± 2.3. For the same compound, the blood glucose levels in assay [2] (10 nM/kg i.p., 60 min) is recorded as 112 ± 3.0; in assay [2] (10 nM/kg i.p., 120 min), 112 ± 1.9.
`CCc1cc(OC)ccc1-c1ccc(CC(NC(=O)[C@H](CC(=O)O)NC(=O)[C@H](CO)NC(=O)[C@@H](NC(=O)C(C)(Cc2ccccc2F)NC(=O)[C@@H](NC(=O)CNC(=O)C(CCC#N)NC(=O)C(C)(C)NC(=O)[C@@H](N)Cc2c[nH]cn2)[C@H](C)O)[C@H](C)O)C(=O)NC(CCCc2ccccc2F)C(N)=O)cc1` (single isomer, unassigned) [Seq. ID. 116]: the blood glucose levels is 185 ± 2.1 in assay [1] (2 μM/kg oral, 0 min); 115 ± 2.8 in assay [1] (2 μM/kg oral, 30 min); 112 ± 4.9 in assay [1] (2 μM/kg oral, 60 min); 111 ± 2.2 in assay [1] (2 μM/kg oral, 120 min); 184 ± 5.0 in assay [2] (50 nM/kg i.p., 0 min); 122 ± 3.8 in assay [2] (50 nM/kg i.p., 30 min). In addition, the blood glucose levels in assay [2] (50 nM/kg i.p., 60 min) turned out to be 128 ± 2.1; in assay [2] (50 nM/kg i.p., 120 min) it was 149 ± 2.3.
Take `CCc1cc(OC)ccc1-c1ccc(CC(NC(=O)[C@H](CC(=O)O)NC(=O)[C@H](CO)NC(=O)[C@@H](NC(=O)C(C)(Cc2ccccc2F)NC(=O)[C@@H](NC(=O)CNC(=O)[C@H](CCC(N)=O)NC(=O)C(C)(C)NC(=O)[C@@H](N)Cc2c[nH]cn2)[C@@H](C)O)[C@@H](C)O)C(=O)NC(CCCc2ccc(OC)cc2Cl)C(N)=O)cc1` (stereo partly shown) [Seq. ID. 92] (H-H[Aib]QGT[ξαMePhe(2-F)]TSD[ξBip(2'-Et-4'-OMe)][X12]-NH2): the blood glucose levels was 180 ± 4.2 in assay [2] (10 nM/kg i.p., 0 min); 113 ± 3.2 in assay [2] (10 nM/kg i.p., 30 min); 112 ± 2.4 in assay [2] (10 nM/kg i.p., 60 min); 110 ± 1.9 in assay [2] (10 nM/kg i.p., 120 min).
As to `CCc1cc(OC)ccc1-c1ccc(CC(NC(=O)[C@H](CC(=O)O)NC(=O)[C@H](CO)NC(=O)[C@@H](NC(=O)C(C)(Cc2ccccc2F)NC(=O)[C@@H](NC(=O)CNC(=O)[C@H](CCC(N)=O)NC(=O)C(C)(C)NC(=O)[C@H](Cc2c[nH]cn2)NC(=O)OC)[C@@H](C)O)[C@@H](C)O)C(=O)NC(CCCc2ccccc2)C(N)=O)cc1` (stereo partly shown) [Seq. ID. 94] (Moc-H[Aib]QGT[ξαMePhe(2-F)]TSD[ξBip(2'-Et-4'-OMe)][ξhhPhe]-NH2), the blood glucose levels is given as 182 ± 4.1 in assay [2] (10 nM/kg i.p., 0 min); 112 ± 3.1 in assay [2] (10 nM/kg i.p., 30 min); 113 ± 2.6 in assay [2] (10 nM/kg i.p., 60 min); 111 ± 1.8 in assay [2] (10 nM/kg i.p., 120 min).
